Key:
[1] = test system: ragweed; test: Test A postemergence; assay type: in vivo, Ambrosia artemisiifolia; conditions: Ambrosia artemisiifolia, post-emergence, 240 h, postemergence, 10 days, 0 to 100 scale (0 no effect, 100 complete control)
In short: (§1)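 Weeds and crops in loam–sand blend were sprayed preemergence onto soil or postemergence at 2–10 cm (one- to two-leaf stage). Test chemicals were in a non-phytotoxic solvent with surfactant. After 10 days in the greenhouse, injury was rated visually against untreated controls on a 0 (no effect) to 100 (complete control) scale.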

[2] = test system: pigweed, palmer; test: Test A preemergence; assay type: in vivo, Amaranthus palmeri; conditions: Amaranthus palmeri, pre-emergence, 240 h, read-out: Plant response rating, Pigweed, Palmer
In short: as §1

[3] = test system: oat, wild; test: Test A postemergence; assay type: in vivo, Avena fatua; conditions: Avena fatua, post-emergence, 240 h, postemergence, 10 days, 0 to 100 scale (0 no effect, 100 complete control)
In short: as §1

[4] = test system: foxtail, giant; test: Test A postemergence; assay type: in vivo, Setaria faberi; conditions: Setaria faberi, post-emergence, 240 h, postemergence, 10 days, 0 to 100 scale (0 no effect, 100 complete control)
In short: as §1

[5] = test system: galium; test: Test A postemergence; assay type: in vivo, Galium aparine; conditions: Galium, post-emergence, 240 h, postemergence, 10 days, 0 to 100 scale (0 no effect, 100 complete control)
In short: as §1

[6] = test system: soybean; test: Test A preemergence; assay type: in vivo, Glycine max; conditions: Glycine max, pre-emergence, 240 h, read-out: Plant response rating, Soybean
In short: as §1

[7] = test system: soybean; test: Test A postemergence; assay type: in vivo, Glycine max; conditions: Glycine max, post-emergence, 240 h, postemergence, 10 days, 0 to 100 scale (0 no effect, 100 complete control)
In short: as §1

[8] = test system: corn; test: Test A preemergence; assay type: in vivo, Zea mays; conditions: Zea mays, pre-emergence, 240 h
In short: as §1

[9] = test system: ryegrass, Italian; test: Test A postemergence; assay type: in vivo, Lolium multiflorum; conditions: Lolium multiflorum, post-emergence, 240 h, postemergence, 10 days, 0 to 100 scale (0 no effect, 100 complete control)
In short: as §1

[10] = test system: barnyardgrass; test: Test A postemergence; assay type: in vivo, Echinochloa crusgalli; conditions: postemergence, 10 days
In short: as §1

[11] = test system: ragweed; test: Test A preemergence; assay type: in vivo, Ambrosia artemisiifolia; conditions: Ambrosia artemisiifolia, pre-emergence, 240 h, read-out: Plant response rating, Ragweed
In short: as §1

[12] = test system: wheat; test: Test A preemergence; assay type: in vivo, Triticum aestivum; conditions: Triticum aestivum, pre-emergence, 240 h, read-out: Plant response rating, Wheat
In short: as §1

[13] = test system: wheat; test: Test A postemergence; assay type: in vivo, Triticum aestivum; conditions: Triticum aestivum, post-emergence, 240 h, postemergence, 10 days, 0 to 100 scale (0 no effect, 100 complete control)
In short: as §1

[14] = test system: sedge, umbrella; test: Test B flooded paddy test; assay type: in vivo, Cyperus difformis; conditions: Cyperus difformis, 312 h; 250 g ai/ha, Flood, 13 days, 0 to 100 scale (0 no effect, 100 complete control); read-out: Plant response rating, Sedge, Umbrella
In short: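 Species grown to 2-leaf stage; pots flooded 3 cm above soil and compound applied directly to paddy water, depth maintained throughout. After 13 days in greenhouse, plants visually rated against controls on 0–100 scale (0 no effect, 100 complete control); dash means no result.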

[15] = 125 g ai/ha, visual injury after 10 days, 0 to 100 scale, 0 is no effect, 100 is complete control
[16] = 500 g ai/ha, 0 to 100 scale (0 no effect, 100 complete control), 10 days

Compound: Cc1cccc2c1O[C@@H](C)CN2C(=O)c1cccc(-n2cnc(C3COC3)n2)c1 [Compound 109, [(2S)-2,3-Dihydro-2,8-dimethyl-4H-1,4-benzoxazin-4-yl][3-[3-(3-oxetanyl)-1H-1,2,4-triazol-1-yl]phenyl]methanone]
- pest or weed control at 125 g/ha ([1]; 125 g ai/ha, read-out: Ragweed plant response rating): 0%
- pest or weed control at 500 g/ha ([1]; 500 g ai/ha, visual injury, read-out: Plant response rating, Ragweed): 50%
- pest or weed control at 125 g/ha [2, 15]: 90%
- pest or weed control at 500 g/ha [2, 16]: 100%
- pest or weed control at 125 g/ha ([3]; 125 g ai/ha, read-out: Oat, Wild plant response rating): 80%
- pest or weed control at 500 g/ha ([3]; 500 g ai/ha, visual injury, read-out: Plant response rating, Oat, Wild): 80%
- pest or weed control at 125 g/ha ([4]; 125 g ai/ha, read-out: Foxtail, Giant plant response rating): 70%
- pest or weed control at 500 g/ha ([4]; 500 g ai/ha, visual injury, read-out: Plant response rating, Foxtail, Giant): 90%
- pest or weed control at 125 g/ha ([5]; 125 g ai/ha, read-out: Galium plant response rating): 70%
- pest or weed control at 500 g/ha ([5]; 500 g ai/ha, visual injury, read-out: Plant response rating, Galium): 100%
- plant injury at 125 g/ha [6, 15]: 30%
- plant injury at 500 g/ha [6, 16]: 80%
- plant injury at 125 g/ha ([7]; 125 g ai/ha, read-out: Soybean plant response rating): 100%
- plant injury at 500 g/ha ([7]; 500 g ai/ha, visual injury, read-out: Plant response rating, Soybean): 100%
- Corn plant response rating (crop injury, 0 = no effect, 100 = complete kill) at 125 g/ha [8, 15]: 40%
- Corn plant response rating (crop injury, 0 = no effect, 100 = complete kill) at 500 g/ha [8, 16]: 70%
- pest or weed control at 125 g/ha ([9]; 125 g ai/ha, read-out: Ryegrass, Italian plant response rating): 50%
- pest or weed control at 500 g/ha ([9]; 500 g ai/ha, visual injury, read-out: Plant response rating, Ryegrass, Italian): 100%
- Barnyardgrass plant response rating ([10]; 125 g ai/ha, 0 to 100 scale, 0 no effect, 100 complete control): 50
- Plant response rating, Barnyardgrass ([10]; 500 g ai/ha, visual injury, 0 to 100 scale (0 no effect, 100 complete control)): 90
- pest or weed control at 125 g/ha [11, 15]: 40%
- pest or weed control at 500 g/ha [11, 16]: 80%
- plant injury at 125 g/ha [12, 15]: 40%
- plant injury at 500 g/ha [12, 16]: 90%
- plant injury at 125 g/ha ([13]; 125 g ai/ha, read-out: Wheat plant response rating): 40%
- plant injury at 500 g/ha ([13]; 500 g ai/ha, visual injury, read-out: Plant response rating, Wheat): 90%
- pest or weed control at 250 g/ha [14]: 98%
